Measurements: patent US20240180880A1, “METHODS OF USING EHMT2 INHIBITORS IN TREATING OR PREVENTING BLOOD DISORDERS” (Epizyme, Inc., priority 2017, published 2024)

Experiments:
[1] = tested on: Human CD34+ progenitor cells; assay: Human CD34+ progenitors assay for fetal hemoglobin induction, % HbF+ cells by FACS (healthy donors); format: cell-based; details: for Observed Induction of % HbF + Human Erythroid Progenitors: evaluated in the context of cell viability; for % HbF+ cells: 26% basal level
Text: An in-vitro system to test the ability of compound to induce fetal hemoglobin expression was developed. This system used Human CD34+ progenitor cells freshly isolated from healthy donors blood collections. Peripheral blood mononuclear cells (PBMCs) were isolated from whole blood by density gradient centrifugation using SepMatem-50 and Lymphoprep™ from Stem Cell Technologies. CD34^+ hematopoietic progenitor cells (HSPCs) were isolated from PBMCs by magnetic separation using Stem Cells Technologies CD34+ positive selection/isolation kit (Stem Cell Technologies, #18056). CD34 cells were cultured using a 2-phase 14 day culture system. During phase 1 (day 0 to day 7) cells were expanded. Expansion was followed by phase 2 (day 7 to day 14) where cells were differentiated toward the erythroid lineage. Compounds were added on day 1 and day 7 as 1000× stock after being diluted in dimethyl sulfoxide (DMSO) in a 3-fold series. Final DMSO concentration in the assay was 0.1%. At day 14 cells were harvested for Fluorescent Activated Cell Sorting (FACS) analysis and for HbF quantitation by Mass spectrometry. For cell surface and intracellular marker analysis by FACS, cells were fixed and stained with a cocktail of antibodies covering erythroid lineage markers, HbF and H3 and H3K9me2 (Table 11). Data was collected using Canto II flow cytometer (BD Biosciences) and the FACSDiva software. Data was analyzed using FlowJo software. % HbF^+ cells and ratios H3/H3K9me2 intensities were calculated for CD71^+/CD235a^+ gated populations.
A list of pharmacological agents was evaluated for their potential to induce fetal Hemoglobin (HbF) in order to identify combination partners for our EHMT1/2 inhibitors. HbF can be induced by toxicity; therefore, the potential of the agents to induce HbF were evaluated in the context of cell viability. (Table 12). The EHMT1/2 inhibitor Compound 205 was evaluated in combination with a fixed dose of 10 μM Hydroxyurea and 0.1 μM Pomalidomide. […] 10 μM Hydroxyurea as a single agent was able to induce 01% HbF^+ cells from 26% basal level to 45% while 0.016 μM compound 205 as a single agent induced to 45%. In combination these two agents were able to induced % HbF^+ to 63% (FIG. 3A). […] 0.1 μM Pomalidomide as a single agent was able to induce ° % HbF cells from 26% basal level to 48% while 0.016 μM compound 205 as a single agent induced to 45%. In combination these two agents were able to induce % HbF^+ to 78% (FIG. 3B).
Hydroxyurea was also evaluated as single agent and in combination with the EHMT1/2 inhibitor compound 205 in a matrix format using CD34^+ cells isolated from a pool of 5 healthy donors. […] (FIG. 4 and FIG. 5, respectively). It is noted that for Loewe excess determination in Chalice, data was normalized to the highest and lowest Hbγ induction observed under the conditions and dose ranges in the assay.

[2] = tested on: human CD34+ progenitor cells isolated from SCD donors; assay: HbF pan-cellular induction by FACS in human CD34+ progenitor cells isolated from SCD donors; format: cell-based

Row | SMILES | Observed Induction of % HbF + Human Erythroid Progenitors [1] | also measured
1 | O=C(CCCCCCC(=O)Nc1ccccc1)NO [Vorinostat, vorinostat] | No | –
2 | Nc1ccccc1NC(=O)c1ccc(CNC(=O)OCc2cccnc2)cc1 [Entinostat, entinostat] | Yes | –
3 | CN(C)C(=N)N=C(N)N [Metformin] | Yes | –
4 | Nc1cccc2c1C(=O)N(C1CCC(=O)NC1=O)C2=O (stereo not shown) [Pomalidomide, pomalidomide] | Yes | % HbF+ cells ([1]; 0.1 μM Pomalidomide as a single agent): 48%
5 | Clc1ccc2c(c1)CCc1cccnc1C2=C1CCNCC1 [Desloratidine, desloratidine] | No | –
6 | CNc1cc(C)nc(Nc2ccc(OC)c(OC[C@H](O)CN3CCC3)c2)n1 [Compound D5R] | – | Fluorescence Intensity at which most of the positive cells are concentrated ([2]; 0.012 μM Compound D5R): ~10(3); % of HbF expressing cells ([2]; 0.012 μM Compound D5R, DMSO baseline 42.7%): 98.1%; % of HbF expressing cells ([2]; 10 μM Hydroxyurea in combination with 0.012 μM Compound D5R, DMSO baseline 42.7%): 99.8%; % HbF+ cells ([2]; Compound D5R dose response range (FIG. 6 ii-vi), DMSO baseline 42.7%): > 98%
7 | NC(CO)C(=O)NNCc1ccc(O)c(O)c1O (stereo not shown) [Benzerazide] | Very small | –
8 | NC(=O)NO [Hydroxyurea, hydroxyurea, reference compound] | Yes | % HbF+ cells ([1]; 10 μM Hydroxyurea as a single agent): 45%; Fluorescence Intensity at which most of the positive cells are concentrated ([2]; 10 μM Hydroxyurea): ~10(4); % of HbF expressing cells ([2]; 10 μM Hydroxyurea, DMSO baseline 42.7%): 78.1%
9 | Nc1ccccc1NC(=O)c1cnccn1 [BG-45] | Yes | –
